Results taken from patent publication US8962547B2 (Signature Therapeutics, Inc., priority 2011, dated 2015).

Tests used:
trypsin = target: T1, trypsin (Bos taurus, UniProt P00760); assay: In vitro trypsin-mediated prodrug cleavage; assay type: biochemical, bovine; conditions: bovine, trypsin from bovine pancreas; 0.761 mM KC-8•2HCl, Tris pH 8, 37° C.; footnote: adjusted to 4815 BAEE U/mL trypsin
T1 construct: purchased Sigma-Aldrich T8003; host or cells: bovine pancreas
T1 sequence (P00760 24-246): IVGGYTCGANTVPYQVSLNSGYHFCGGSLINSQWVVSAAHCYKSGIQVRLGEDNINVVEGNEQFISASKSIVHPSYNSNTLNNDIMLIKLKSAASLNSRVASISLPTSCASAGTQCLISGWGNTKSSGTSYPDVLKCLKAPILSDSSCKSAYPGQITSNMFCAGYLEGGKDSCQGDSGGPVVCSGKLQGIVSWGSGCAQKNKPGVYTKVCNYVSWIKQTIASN
Procedure: (§1) The reactions were conducted at 37° C. for 24 h.
(§2) Table 3 indicates the results of exposure of Compound KC-8 to trypsin. […] Table 3 also indicates the cyclization rate of the cyclizable spacer leaving group of Compound KC-22. The results are expressed as half-life of compound disappearance.

[1] = target: T2, trypsin from bovine pancreas (Bos taurus, UniProt P00760); assay: In vitro trypsin-mediated prodrug cleavage; assay type: biochemical
T2 construct: purchased Sigma-Aldrich T8003; host or cells: bovine pancreas
T2 sequence (P00760 24-246): T1 sequence (P00760 24-246)
Procedure: as §1, §2

[2] = Pharmacokinetics following PO administration to dogs, Study A (oxycodone in plasma)
[3] = Pharmacokinetics of Compound KC-8 following PO administration to dogs, Study B; assay type: in vivo, dog; conditions: 4.55 to 18.2 mg/kg
Procedure: Compound KC-8 was also dosed to dogs in a separate experiment at the doses indicated in Table 2B, and samples were collected at various times over a 48-h period. Otherwise, the procedures were the same as that described for Study A.

[4] = Spacer leaving group cyclization release rate in phosphate buffer; assay type: physicochemical; conditions: 2.18 mM initial, 50 mM pH 7.4 phosphate buffer, 20° C.
From the text: as §2

[5] = male, beagle, dog, plasma, po, 2 mg/kg

COc1ccc2c3c1O[C@H]1C(OC(=O)N(C)CC(C)(C)CNC(=O)[C@H](CCCNC(=N)N)NC(=O)CNC(=O)CC(=O)O)=CC[C@@]4(O)[C@@H](C2)N(C)CC[C@]314 [Compound KC-8, N-1-[3-(oxycodone-6-enol-carbonyl-methyl-amino)-2,2-dimethyl-propylamine]-arginine-glycine-malonic acid]
half-life at 0.761 mM (trypsin): 11.3 ± 0.48 min | OC formation rate ([1]; 0.761 mM KC-8•2HCl, Tris pH 8, 37° C.): 0.296 ± 0.044 μmol/h/BAEE U | cleavage by trypsin ([1]; in vitro): can be cleaved by trypsin | oxycodone PK profile compared to administration of oxycodone ([2]; dogs, PO): suppressed oxycodone Cmax, delayed oxycodone Tmax and extended oxycodone exposure time (AUC) | release of oxycodone into dog plasma compared to Compound KC-3 ([2]; dogs, PO): significantly enhanced release of oxycodone into dog plasma (higher Cmax and AUC) | oral PK profile in dogs [3]: reproducible oral PK profile in dogs that is dose proportional

COc1ccc2c3c1O[C@H]1C(OC(=O)N(C)CC(C)(C)CN)=CC[C@@]4(O)[C@@H](C2)N(C)CC[C@]314 [Compound KC-22, N-1-[3-(oxycodone-6-enol-carbonyl-methyl-amino)-2,2-dimethyl-propylamine]]
Disappearance half-life [4]: 624 ± 0.36 min

COc1ccc2c3c1O[C@H]1C(=O)CC[C@@]4(O)[C@@H](C2)N(C)CC[C@]314.Cl [Oxycodone, oxycodone HCl, reference compound]
AUC [2, 5]: 418 ± 54 ng·h/mL | Cmax [2, 5]: 193 ± 69 ng/mL | Tmax [2, 5]: 30 min

N-1-[2-(oxycodone-6-enol-carbonyl-methyl-amino)-ethylamine]-arginine-malonic acid [Compound KC-3]
OC Cmax ± sd ([2]; oxycodone in dog plasma, 4.15 mg/kg ([…]) PO, LLOQ […]): 10.2 ± 3.3 ng/mL | AUC ± sd 0-24 h ([2]; oxycodone in dog plasma, 4.15 mg/kg PO): 65.6 ± 22 ng·h/mL
